Measured values taken from PubChem BioAssay AID1259407 (Chemical Carcinogenesis Research Information System (CCRIS), 2018).
Active and inactive are the calls of the source. The rule behind the calls is not given here.

Tested on: CCRIS mutagenicity, Ames/micronucleus/aberration tests
Assay: CCRIS mutagenicity studies
[1] = Test System: AMES SALMONELLA TYPHIMURIUM, Strain/Indicator: TA98, Metabolic Activation: NONE, Method: STANDARD PLATE
[2] = Test System: AMES SALMONELLA TYPHIMURIUM, Strain/Indicator: TA100, Metabolic Activation: NONE, Method: STANDARD PLATE
[3] = Test System: MOUSE LYMPHOMA, Strain/Indicator: L5178Y (TK+/TK-), Metabolic Activation: NONE, Method: SUSPENSION/PLATE
[4] = Test System: AMES SALMONELLA TYPHIMURIUM, Strain/Indicator: TA98, Metabolic Activation: HAMSTER, LIVER, S-9, AROCLOR 1254 (10%), Method: PREINCUBATION
[5] = Test System: AMES SALMONELLA TYPHIMURIUM, Strain/Indicator: TA98, Metabolic Activation: NONE, Method: PREINCUBATION
[6] = Test System: AMES SALMONELLA TYPHIMURIUM, Strain/Indicator: TA98, Metabolic Activation: RAT, LIVER, S-9, AROCLOR 1254 (10%), Method: PREINCUBATION
[7] = Test System: AMES SALMONELLA TYPHIMURIUM, Strain/Indicator: TA100, Metabolic Activation: HAMSTER, LIVER, S-9, AROCLOR 1254 (10%), Method: PREINCUBATION
[8] = Test System: AMES SALMONELLA TYPHIMURIUM, Strain/Indicator: TA100, Metabolic Activation: NONE, Method: PREINCUBATION
[9] = Test System: AMES SALMONELLA TYPHIMURIUM, Strain/Indicator: TA100, Metabolic Activation: RAT, LIVER, S-9, AROCLOR 1254 (10%), Method: PREINCUBATION
[10] = Test System: AMES SALMONELLA TYPHIMURIUM, Strain/Indicator: TA1535, Metabolic Activation: HAMSTER, LIVER, S-9, AROCLOR 1254 (10%), Method: PREINCUBATION
[11] = Test System: AMES SALMONELLA TYPHIMURIUM, Strain/Indicator: TA1535, Metabolic Activation: NONE, Method: PREINCUBATION
[12] = Test System: AMES SALMONELLA TYPHIMURIUM, Strain/Indicator: TA1535, Metabolic Activation: RAT, LIVER, S-9, AROCLOR 1254 (10%), Method: PREINCUBATION
[13] = Test System: AMES SALMONELLA TYPHIMURIUM, Strain/Indicator: TA1537, Metabolic Activation: HAMSTER, LIVER, S-9, AROCLOR 1254 (10%), Method: PREINCUBATION
[14] = Test System: AMES SALMONELLA TYPHIMURIUM, Strain/Indicator: TA1537, Metabolic Activation: NONE, Method: PREINCUBATION
[15] = Test System: AMES SALMONELLA TYPHIMURIUM, Strain/Indicator: TA1537, Metabolic Activation: RAT, LIVER, S-9, AROCLOR 1254 (10%), Method: PREINCUBATION

Measured: mutagenic call

COP(=O)(NC(C)=O)SC (centres undefined)
inactive: [1] inactive; negative | [2] inactive; negative | Test System: AMES SALMONELLA TYPHIMURIUM, Strain/Indicator: TA1535, Metabolic Activation: NONE, Method: STANDARD PLATE inactive; negative
active: Test System: Mouse Lymphoma, Strain/Indicator: L5178Y (TK+/TK-), Metabolic Activation: None, Method: Suspension/Plate active; positive; dose-dependent increase | Test System: Mouse Lymphoma, Strain/Indicator: L5178Y (TK+/TK-), Metabolic Activation: Rat, liver S-9, Method: Suspension/Plate active; positive; dose-dependent increase

COc1cc(O)c2c(c1)C1=C[C@H](O)[C@@H](O)C[C@]1(C)OC2=O
inactive: End Point: Ames Salmonella typhimurium, Strain/Indicator: TA97, Metabolic Activation: None, Method: Standard plate inactive; negative. nitrosation did not increase mutagenicity | End Point: Ames Salmonella typhimurium, Strain/Indicator: TA97, Metabolic Activation: Rat, Liver, S-9, Aroclor 1254 (10%), Method: Standard plate inactive; negative. nitrosation did not increase mutagenicity | End Point: Ames Salmonella typhimurium, Strain/Indicator: TA102, Metabolic Activation: None, Method: Standard plate inactive; negative. nitrosation did not increase mutagenicity | End Point: Ames Salmonella typhimurium, Strain/Indicator: TA102, Metabolic Activation: Rat, Liver, S-9, Aroclor 1254 (10%), Method: Standard plate inactive; negative. nitrosation did not increase mutagenicity | End Point: Ames Salmonella typhimurium, Strain/Indicator: TA104, Metabolic Activation: None, Method: Standard plate inactive; negative. nitrosation did not increase mutagenicity | End Point: Ames Salmonella typhimurium, Strain/Indicator: TA104, Metabolic Activation: Rat, Liver, S-9, Aroclor 1254 (10%), Method: Standard plate inactive; negative. nitrosation did not increase mutagenicity | [1] inactive; negative | Test System: AMES SALMONELLA TYPHIMURIUM, Strain/Indicator: TA98, Metabolic Activation: RAT LIVER S-9, AROCLOR 1254, Method: STANDARD PLATE inactive; negative | [2] inactive; negative | Test System: AMES SALMONELLA TYPHIMURIUM, Strain/Indicator: TA100, Metabolic Activation: RAT LIVER S-9, AROCLOR 1254, Method: STANDARD PLATE inactive; negative

O=[As](O)(O)O
active: End Point: IN VITRO CHROMOSOMAL ABERRATIONS, Test System: CHINESE HAMSTER OVARY (CHO), Metabolic Activation: NONE active; positive (structural changes: gaps, breaks) | End Point: IN VITRO MICRONUCLEUS, Test System: CHINESE HAMSTER V-79, Metabolic Activation: NONE active; positive | End Point: In vitro chromosomal aberrations, Test System: Human peripheral lymphocytes, Metabolic Activation: None active; positive | End Point: In vitro micronucleus, Test System: Human peripheral lymphocytes, Metabolic Activation: None active; positive | Test System: CHINESE HAMSTER V-79, Strain/Indicator: SPD8 V-79 (HPRT)/6-THIOGUANINE, Metabolic Activation: NONE, Method: STANDARD PLATE active; positive | [3] active; positive
inactive: End Point: In vivo micronucleus, Test System: Bone marrow polychromatic erythrocytes, Species: Mouse, Strain/Sex: C57BI/6J/Female, Route: Oral inactive; negative | Test System: AMES SALMONELLA TYPHIMURIUM, Strain/Indicator: TA102, Metabolic Activation: NONE, Method: STANDARD PLATE inactive; negative | Test System: CHINESE HAMSTER V-79, Strain/Indicator: SP5 V-79 (HPRT)/6-THIOGUANINE, Metabolic Activation: NONE, Method: STANDARD PLATE inactive; negative | Test System: E. COLI, Strain/Indicator: WP2 UVRA, Metabolic Activation: NONE, Method: SPOT TEST inactive; negative

CC(C)(C)CN(N=O)C(N)=O
active: Test System: E. COLI, Strain/Indicator: HS30R UVRA, Metabolic Activation: NONE, Method: PREINCUBATION active; positive | Test System: E. COLI, Strain/Indicator: O16 POLA, Metabolic Activation: NONE, Method: PREINCUBATION active; positive

C=C(C)C(=O)OCC(Br)CBr (centres undefined)
active: [4] active; positive | [7] active; positive | [9] active; positive | [10] active; positive | [12] active; positive
inactive: [5] inactive; negative | [6] inactive; negative | [8] inactive; negative | [11] inactive; negative | [13] inactive; negative | [14] inactive; negative | [15] inactive; negative

O=C1c2ccccc2C(=O)c2c1cc(O)c(C(=O)O)c2O
inactive: [5] inactive; negative | Test System: AMES SALMONELLA TYPHIMURIUM, Strain/Indicator: TA98, Metabolic Activation: RAT, LIVER, S-9, PCB, Method: PREINCUBATION inactive; negative | [8] inactive; negative | Test System: AMES SALMONELLA TYPHIMURIUM, Strain/Indicator: TA100, Metabolic Activation: RAT, LIVER, S-9, PCB, Method: PREINCUBATION inactive; negative

CC(O)c1ccccc1 (centres undefined)
active: [3] active; positive
inactive: [4] inactive; negative | Test System: AMES SALMONELLA TYPHIMURIUM, Strain/Indicator: TA98, Metabolic Activation: HAMSTER, LIVER, S-9, AROCLOR 1254, Method: PREINCUBATION inactive; negative | [5] inactive; negative | [6] inactive; negative | Test System: AMES SALMONELLA TYPHIMURIUM, Strain/Indicator: TA98, Metabolic Activation: RAT, LIVER, S-9, AROCLOR 1254, Method: PREINCUBATION inactive; negative | [7] inactive; negative | Test System: AMES SALMONELLA TYPHIMURIUM, Strain/Indicator: TA100, Metabolic Activation: HAMSTER, LIVER, S-9, AROCLOR 1254, Method: PREINCUBATION inactive; negative | [8] inactive; negative | [9] inactive; negative | Test System: AMES SALMONELLA TYPHIMURIUM, Strain/Indicator: TA100, Metabolic Activation: RAT, LIVER, S-9, AROCLOR 1254, Method: PREINCUBATION inactive; negative | [10] inactive; negative | Test System: AMES SALMONELLA TYPHIMURIUM, Strain/Indicator: TA1535, Metabolic Activation: HAMSTER, LIVER, S-9, AROCLOR 1254, Method: PREINCUBATION inactive; negative | [11] inactive; negative | [12] inactive; negative | Test System: AMES SALMONELLA TYPHIMURIUM, Strain/Indicator: TA1535, Metabolic Activation: RAT, LIVER, S-9, AROCLOR 1254, Method: PREINCUBATION inactive; negative | [13] inactive; negative | Test System: AMES SALMONELLA TYPHIMURIUM, Strain/Indicator: TA1537, Metabolic Activation: HAMSTER, LIVER, S-9, AROCLOR 1254, Method: PREINCUBATION inactive; negative | [14] inactive; negative | [15] inactive; negative | Test System: AMES SALMONELLA TYPHIMURIUM, Strain/Indicator: TA1537, Metabolic Activation: RAT, LIVER, S-9, AROCLOR 1254, Method: PREINCUBATION inactive; negative
